Data: patent publication US11091460B2, “Syk inhibitor and use method therefor” (CHIA TAI TIANQING PHARMACEUTICAL GROUP CO., LTD., priority 2017, dated 2021)

molecular target: T1, SYK kinase (Homo sapiens, UniProt P43405); experiment: In vitro test of the inhibition effect on SYK kinase (HTRF); format: biochemical; details: tyrosine kinase 0.0156 ng/μL, substrate 0.2 uM, ATP 2 uM, 23° C. 1 hour, read-out: Inhibit SYK kinase IC50
T1 construct: purchased Invitrogen PV3857
Method: Experimental Example 1: In Vitro Test of the Inhibition Effect of the Example Compounds on SYK Kinase
Adenosine triphosphate concentration was controlled at 2 uM. • 4) Loaded with a Multidrop automatic dispenser, and a mixture of tyrosinase solution and tyrosine kinase-substrate-biotin/adenosine triphosphate was added in an amount of 5 ul per well, and incubated at 23° C. for 1 hour. • c) Detection phase: • 1) Added 13.33 mL of ethylenediaminetetraacetic acid solution to the Detection Buffer in the kit, added the specified amount of […] (Eu)-labeled antibody and streptavidin XL-665, and prepared the detection solution. • 2) Loaded with a Multidrop automatic dispenser, and 10 uL of the detection solution per well, incubated at 23° C. for 1 hour. It terminated the reaction of the enzyme and substrate mixture. • 3) Reading after centrifugation on a multi-function microplate reader, • d) Data Analysis: Analyzed the data with XL-Fit, and calculated the IC50 value of the compound.

| SMILES | IC50 |
| --- | --- |
| Cn1c(=O)c(Nc2ccc(N3CCC(O)(C(F)(F)F)CC3)cn2)cc2cc(-c3cc[nH]n3)ccc21 [Example 5] | 58.4 nM |
| C[C@@H]1COCCN1c1ccc(Nc2cc3c(F)c(-c4cc[nH]n4)ccc3n(C)c2=O)nc1 [Example 13, (R) 5-fluoro-1-methyl-3-((5-(3-methylmorpholine)pyridin-2-yl)amino)-6-(1H-pyrazol-3-yl)quinoline-2(1H)-one] | 923 nM |
| C[C@H]1COCCN1c1ccc(Nc2cc3c(F)c(-c4cc[nH]n4)ccc3n(C)c2=O)nc1 [Example 14, (S) 5-fluoro-1-methyl-3-((5-(3-methylmorpholine)pyridin-2-yl)amino)-6-(1H-pyrazol-3-yl)quinoline-2(1H)-one] | 237 nM |
| Cn1c(=O)c(Nc2ccc(C3(O)COC3)cn2)cc2c(F)c(-c3cc[nH]n3)ccc21 [Example 22, 5-Fluoro-3-[[5-(3-hydroxyoxetan-3-yl)pyridin-2-yl]amino]-1-methyl-6-(1H-pyrazol-3-yl)quinoline-2(1H)-one] | 38.5 nM |
| Cn1c(=O)c(Nc2ccc(N3CCOCC3)cc2)nc2ccc(-c3cc[nH]n3)cc21 [Example 27, 1-Methyl-3-((4-morpholinephenyl)amino)-7-(1H-pyrazol-3-yl) quinoxaline-2(1H)-one] | 78 nM |
| Cn1c(=O)c(Nc2ccc(N3CCOCC3)cc2)nc2ccc(-c3ccncc3)cc21 [Example 28, 1-Methyl-3-((4-morpholinephenyl)amino)-7-(pyridin-4-yl)quinoxaline-2(1H)-one] | 230 nM |
| Cn1c(=O)c(Nc2ccc(N3CCOCC3)cc2)nc2ccc(-c3ncc[nH]3)cc21 [Example 30, 7-(1H-imidazol-2-yl)-1-methyl-3-((4-morpholinephenyl)amino)quinoxaline-2(1H)-one] | 461 nM |
| Cn1c(=O)c(Nc2ccc(N3CCOCC3)cc2)nc2ccc(-c3nccs3)cc21 [Example 32, 1-Methyl-3-((4-morpholinephenyl)amino)-7-(thiazol-2-yl)quinoxaline-2(1H)-one] | 212 nM |
| CN1CCN(S(=O)(=O)c2ccc(Nc3nc4ccc(-c5cn[nH]c5)cc4n(C)c3=O)cc2)CC1 [Example 34, 1-Methyl-3-((4-((4-methylpiperazin-1-yl)sulfonyl)phenyl)amino)-7-(1H-pyrazol-4-yl)quinoxaline-2(1H)-one] | 26 nM |
| CCS(=O)(=O)N1CCN(c2ccc(Nc3nc4ccc(-c5cn[nH]c5)cc4n(C)c3=O)cc2)CC1 [Example 36, 3-((4-(4-(Ethylsulfonyl)piperazin-1-yl)phenyl)amino)-1-methyl-7-(1H-pyrazol-4-yl)quinoxaline-2(1H)-one] | 6.4 nM |
| Cn1c(=O)c(Nc2cccc(N3CCN(S(C)(=O)=O)CC3)c2)nc2ccc(-c3cn[nH]c3)cc21 [Example 40, 1-Methyl-3-((3-(4-(methylsulfonyl)piperazin-1-yl)phenyl)amino)-7-(1H-pyrazol-4-yl)quinoxaline-2(1H)-one] | 163 nM |
| Cn1c(=O)c(Nc2ccc(N3CCOCC3)cc2)nc2cc(Cl)c(-c3cn[nH]c3)cc21 [Example 42, 6-Chloro-1-methyl-3-((4-morpholinephenyl)amino)-7-(1H-pyrazol-4-yl)quinoxaline-2(1H)-one] | 30 nM |
| Cn1c(=O)c(Nc2ccc(N3CCOCC3)cc2)nc2ccc(-c3cn[nH]c3)c(Cl)c21 [Example 43, 8-Chloro-1-methyl-3-((4-morpholinephenyl)amino)-7-(1H-pyrazol-4-yl)quinoxaline-2(1H)-one] | 116 nM |
| Cn1c(=O)c(Nc2ccc(N3CCOCC3)cc2F)nc2ccc(-c3cn[nH]c3)cc21 [Example 47, 3-((2-Fluoro-4-morpholinephenyl)amino)-1-methyl-7-(1H-pyrazol-4-yl)quinoxaline-2(1H)-one] | 242 nM |
| Cc1cc(Nc2nc3ccc(-c4cn[nH]c4)cc3n(C)c2=O)ccc1N1CCOCC1 [Example 49] | 22.5 nM |
| Cn1c(=O)c(Nc2ccc(N3CCOCC3)c(Cl)c2)nc2ccc(-c3cn[nH]c3)cc21 [Example 50, 3-((3-Chloro-4-morpholinephenyl)amino)-1-methyl-7-(1H-pyrazol-4-yl)quinoxaline-2(1H)-one] | 49 nM |
| COc1cc(Nc2nc3ccc(-c4cn[nH]c4)cc3n(C)c2=O)ccc1N1CCOCC1 [Example 51, 3-((3-Methoxy-4-morpholinephenyl)amino)-1-methyl-7-(1H-pyrazol-4-yl)quinoxaline-2(1H)one] | 12.9 nM |
| Cn1c(=O)c(Nc2ccc(N3CCOCC3)cn2)nc2ccc(-c3cn[nH]c3)cc21 [Example 52, 1-Methyl-3-((5-morpholinepyridin-2-yl)amino)-7-(1H-pyrazol-4-yl)quinoxaline-2(1H)one] | 29.7 nM |
| Cn1c(=O)c(Nc2ccc(N3CCOCC3)nc2)nc2ccc(-c3cn[nH]c3)cc21 [Example 53, 1-Methyl-3-((6-morpholinepyridin-3-yl)amino)-7-(1H-pyrazol-4-yl) quinoxaline-2(1H)one] | 39.3 nM |
| Cn1c(=O)c(Nc2ccc(NC3CCOCC3)nc2)nc2ccc(-c3cn[nH]c3)cc21 [Example 56, 1-Methyl-7-(1H-pyrazol-4-yl)-3-((6-((tetrahydro-2H-pyran-4-yl)amino)pyridin-3-yl)amino)quinoxaline-2(1H)-one] | 29.2 nM |
| Cn1c(=O)c(Nc2ccc(N3CCOCC3)cc2)nc2ccc(-c3cnc(N)[nH]3)cc21 [Example 57, 7-(2-Amino-1H-imidazol-5-yl)-1-methyl-3-((4-morpholinephenyl)amino)quinoxaline-2(1H)-one] | 62.9 nM |
| Cn1c(=O)c(Nc2ccc(N3CCOCC3)cc2)nc2ccc(-c3cnc(N)s3)cc21 [Example 58, 7-(2-Aminothiazol-5-yl)-1-methyl-3-((4-morpholinephenyl)amino)quinoxaline-2(1H)-one] | 197 nM |
